Values belong to the compound of their own block, whether it stands above or below them.
How the values were obtained:
[1] = target: T1, Phosphatidylinositol 4,5-bisphosphate 3-kinase catalytic subunit beta isoform (Homo sapiens, UniProt P42338)
[2] = target: T2, Phosphatidylinositol 4,5-bisphosphate 3-kinase catalytic subunit gamma isoform (Homo sapiens, UniProt P48736)
[3] = target: T3, Phosphatidylinositol 4,5-bisphosphate 3-kinase catalytic subunit alpha isoform (Homo sapiens, UniProt P42336)
T3 sequence (P42336 whole entry, canonical isoform): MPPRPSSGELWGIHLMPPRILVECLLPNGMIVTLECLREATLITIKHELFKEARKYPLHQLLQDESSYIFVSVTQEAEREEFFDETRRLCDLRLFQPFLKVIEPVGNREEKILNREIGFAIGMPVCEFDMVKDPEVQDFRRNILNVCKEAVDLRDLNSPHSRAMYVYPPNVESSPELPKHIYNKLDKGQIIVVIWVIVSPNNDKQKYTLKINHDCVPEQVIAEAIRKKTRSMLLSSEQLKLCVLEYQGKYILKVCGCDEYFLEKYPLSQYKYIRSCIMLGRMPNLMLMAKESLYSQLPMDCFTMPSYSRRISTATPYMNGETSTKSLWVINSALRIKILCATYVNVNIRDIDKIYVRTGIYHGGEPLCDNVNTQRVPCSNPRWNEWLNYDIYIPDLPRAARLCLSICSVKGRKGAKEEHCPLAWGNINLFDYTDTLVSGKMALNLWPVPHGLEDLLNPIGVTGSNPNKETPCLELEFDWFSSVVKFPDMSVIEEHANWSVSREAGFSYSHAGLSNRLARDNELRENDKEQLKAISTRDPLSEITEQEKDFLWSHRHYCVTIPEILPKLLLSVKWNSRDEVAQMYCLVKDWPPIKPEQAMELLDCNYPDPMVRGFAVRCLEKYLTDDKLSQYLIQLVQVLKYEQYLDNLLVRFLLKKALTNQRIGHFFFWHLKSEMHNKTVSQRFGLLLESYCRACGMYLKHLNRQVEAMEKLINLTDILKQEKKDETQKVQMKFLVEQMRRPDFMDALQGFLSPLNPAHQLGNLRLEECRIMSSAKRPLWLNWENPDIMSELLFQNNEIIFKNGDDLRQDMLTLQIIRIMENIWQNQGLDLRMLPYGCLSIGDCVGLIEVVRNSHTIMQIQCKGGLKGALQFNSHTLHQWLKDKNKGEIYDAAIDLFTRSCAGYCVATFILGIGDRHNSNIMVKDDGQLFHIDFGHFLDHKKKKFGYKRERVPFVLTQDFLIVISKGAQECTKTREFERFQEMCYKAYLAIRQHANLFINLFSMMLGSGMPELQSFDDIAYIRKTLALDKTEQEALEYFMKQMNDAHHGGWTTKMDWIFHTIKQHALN

[4] = target: T2, Phosphatidylinositol 4,5-bisphosphate 3-kinase catalytic subunit gamma isoform; remark: listed apart in the source
[5] = target: T4, Phosphatidylinositol 4,5-bisphosphate 3-kinase catalytic subunit delta isoform (Homo sapiens, UniProt O00329)
T4 sequence (O00329 whole entry): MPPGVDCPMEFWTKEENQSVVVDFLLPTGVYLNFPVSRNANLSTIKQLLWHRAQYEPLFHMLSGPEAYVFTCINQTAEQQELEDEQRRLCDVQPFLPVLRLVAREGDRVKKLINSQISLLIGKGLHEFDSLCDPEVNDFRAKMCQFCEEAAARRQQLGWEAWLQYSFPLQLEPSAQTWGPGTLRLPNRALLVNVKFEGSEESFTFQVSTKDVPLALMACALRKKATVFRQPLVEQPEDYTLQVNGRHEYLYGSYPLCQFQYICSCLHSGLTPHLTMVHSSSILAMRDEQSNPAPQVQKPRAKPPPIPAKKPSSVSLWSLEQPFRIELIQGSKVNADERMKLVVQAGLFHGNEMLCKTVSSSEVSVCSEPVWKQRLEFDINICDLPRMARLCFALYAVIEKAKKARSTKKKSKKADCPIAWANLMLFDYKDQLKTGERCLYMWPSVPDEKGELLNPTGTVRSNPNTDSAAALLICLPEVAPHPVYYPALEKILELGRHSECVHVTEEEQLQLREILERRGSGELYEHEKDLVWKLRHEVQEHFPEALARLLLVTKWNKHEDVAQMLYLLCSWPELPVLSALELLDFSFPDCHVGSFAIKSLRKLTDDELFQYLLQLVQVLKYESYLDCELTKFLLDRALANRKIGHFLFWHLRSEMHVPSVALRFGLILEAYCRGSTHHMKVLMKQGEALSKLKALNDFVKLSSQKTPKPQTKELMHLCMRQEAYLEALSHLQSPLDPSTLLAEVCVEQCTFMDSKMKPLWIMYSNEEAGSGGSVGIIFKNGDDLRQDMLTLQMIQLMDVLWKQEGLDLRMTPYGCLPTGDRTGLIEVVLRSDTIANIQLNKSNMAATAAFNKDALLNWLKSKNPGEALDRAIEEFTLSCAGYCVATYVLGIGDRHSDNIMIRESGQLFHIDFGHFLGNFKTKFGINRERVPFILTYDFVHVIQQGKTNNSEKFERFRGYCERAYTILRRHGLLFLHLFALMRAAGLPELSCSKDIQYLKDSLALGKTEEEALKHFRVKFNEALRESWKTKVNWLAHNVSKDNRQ

[6] = target: Serine/threonine-protein kinase mTOR (Homo sapiens, UniProt P42345)
[7] = target: DNA-dependent protein kinase catalytic subunit (Homo sapiens, UniProt P78527)
mTORC1 = mTORC1 (Homo sapiens, UniProt P42345); type: protein-complex assay
clinical = conditions: human, in vivo
cells = type: cell-based; conditions: Homo sapiens
[8] = target: T3, Phosphatidylinositol 4,5-bisphosphate 3-kinase catalytic subunit alpha isoform; type: cell-based
[9] = target: T1, Phosphatidylinositol 4,5-bisphosphate 3-kinase catalytic subunit beta isoform; type: cell-based

T1 sequence (P42338 whole entry, canonical isoform): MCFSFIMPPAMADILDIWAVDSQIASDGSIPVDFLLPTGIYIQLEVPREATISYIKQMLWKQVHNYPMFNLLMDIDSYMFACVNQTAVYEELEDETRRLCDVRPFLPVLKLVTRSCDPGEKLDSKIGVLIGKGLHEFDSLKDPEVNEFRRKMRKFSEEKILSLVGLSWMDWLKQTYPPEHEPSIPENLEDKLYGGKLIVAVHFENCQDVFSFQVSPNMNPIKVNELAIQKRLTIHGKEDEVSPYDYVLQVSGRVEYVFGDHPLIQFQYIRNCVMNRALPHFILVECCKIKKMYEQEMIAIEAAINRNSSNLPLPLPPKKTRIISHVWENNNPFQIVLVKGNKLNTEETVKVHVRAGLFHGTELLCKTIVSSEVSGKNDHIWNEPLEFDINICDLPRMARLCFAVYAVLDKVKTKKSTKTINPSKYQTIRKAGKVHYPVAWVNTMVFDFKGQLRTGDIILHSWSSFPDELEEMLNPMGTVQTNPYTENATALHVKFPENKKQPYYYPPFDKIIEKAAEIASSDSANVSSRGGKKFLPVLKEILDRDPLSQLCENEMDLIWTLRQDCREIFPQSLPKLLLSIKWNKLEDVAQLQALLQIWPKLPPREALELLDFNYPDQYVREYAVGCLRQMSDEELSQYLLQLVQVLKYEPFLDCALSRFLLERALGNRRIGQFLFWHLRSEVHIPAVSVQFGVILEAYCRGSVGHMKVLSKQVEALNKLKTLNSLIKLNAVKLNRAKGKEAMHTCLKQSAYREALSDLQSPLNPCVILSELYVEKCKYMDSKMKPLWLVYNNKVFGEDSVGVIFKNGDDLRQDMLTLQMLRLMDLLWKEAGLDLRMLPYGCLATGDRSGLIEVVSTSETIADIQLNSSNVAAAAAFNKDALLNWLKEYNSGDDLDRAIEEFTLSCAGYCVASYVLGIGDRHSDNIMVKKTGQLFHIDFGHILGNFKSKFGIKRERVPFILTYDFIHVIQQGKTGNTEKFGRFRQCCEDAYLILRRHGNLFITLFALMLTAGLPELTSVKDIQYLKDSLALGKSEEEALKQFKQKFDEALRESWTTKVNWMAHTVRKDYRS
T2 sequence (P48736 whole entry, canonical isoform): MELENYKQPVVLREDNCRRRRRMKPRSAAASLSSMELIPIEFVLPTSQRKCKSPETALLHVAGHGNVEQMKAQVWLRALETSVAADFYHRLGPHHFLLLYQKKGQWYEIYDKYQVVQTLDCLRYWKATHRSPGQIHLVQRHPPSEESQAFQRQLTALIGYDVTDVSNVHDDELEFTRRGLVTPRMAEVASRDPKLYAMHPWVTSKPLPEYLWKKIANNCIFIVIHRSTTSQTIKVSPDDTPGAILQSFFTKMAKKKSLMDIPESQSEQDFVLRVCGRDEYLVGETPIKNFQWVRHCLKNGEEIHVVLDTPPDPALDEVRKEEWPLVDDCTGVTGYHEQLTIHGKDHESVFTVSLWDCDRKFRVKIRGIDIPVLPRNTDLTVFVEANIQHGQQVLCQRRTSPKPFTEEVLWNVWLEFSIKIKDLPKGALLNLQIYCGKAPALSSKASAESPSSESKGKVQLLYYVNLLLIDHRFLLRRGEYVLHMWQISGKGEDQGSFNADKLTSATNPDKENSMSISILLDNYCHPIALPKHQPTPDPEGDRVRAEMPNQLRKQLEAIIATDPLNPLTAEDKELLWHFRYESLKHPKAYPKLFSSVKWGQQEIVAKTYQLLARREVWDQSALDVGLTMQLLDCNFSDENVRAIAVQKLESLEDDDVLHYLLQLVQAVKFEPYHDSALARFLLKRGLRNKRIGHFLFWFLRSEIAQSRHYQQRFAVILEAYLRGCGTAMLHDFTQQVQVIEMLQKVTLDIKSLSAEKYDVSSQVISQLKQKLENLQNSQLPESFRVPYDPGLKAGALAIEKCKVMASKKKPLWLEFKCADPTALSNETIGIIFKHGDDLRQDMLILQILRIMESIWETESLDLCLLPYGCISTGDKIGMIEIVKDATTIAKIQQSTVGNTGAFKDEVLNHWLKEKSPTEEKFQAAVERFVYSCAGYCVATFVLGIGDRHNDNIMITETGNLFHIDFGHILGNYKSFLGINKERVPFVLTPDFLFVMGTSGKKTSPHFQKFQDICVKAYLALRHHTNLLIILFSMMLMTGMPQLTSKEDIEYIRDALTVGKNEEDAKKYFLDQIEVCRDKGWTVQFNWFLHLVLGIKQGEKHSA

SMILES: CN1CCOc2cc(/C=C3\SC(=O)NC3=O)ccc21
IC50 [2]: > 10000 nM

SMILES: Cc1ccc(S(=O)(=O)Nc2nc3ccccc3nc2Nc2ccc3nsnc3c2)cc1
IC50 [1]: 383 nM

SMILES: N=C(N)NCCCC(NC(=O)CCC(=O)OC[N+]1(c2cc(=O)c3cccc(-c4ccccc4)c3o2)CCOCC1)C(=O)NCC(=O)NC(CC(=O)O)C(=O)NC(CO)C(=O)[O-] (stereo not drawn)
IC50 [1]: 736 nM | IC50 [3]: 356 nM | IC50 [4]: 1770 nM | IC50 [5]: 3230 nM | IC50 [6]: 1060 nM | IC50 [7]: 357 nM

SMILES: COc1cc(Nc2nc3ccccc3nc2NS(=O)(=O)c2ccc(NC(=O)c3ccc(C)c(OC)c3)cc2)cc(OC)c1
IC50 [7]: 150 nM | IC50 (mTORC1): 190 nM

SMILES: COc1ccc(-c2ccc3ncc4c(c3c2)n(-c2ccc(N3CCNCC3)c(C(F)(F)F)c2)c(=O)n4C)cn1 [BGT-226 FREE BASE]
half-life (clinical): 6 h

SMILES: COc1c(OCCCN2CCOCC2)ccc2c1N=C(NC(=O)c1cnc(N)nc1)N1CCN=C21 [COPANLISIB]
IC50 (cells): < 1 nM

SMILES: Oc1ccc(/C=C/c2cc(O)cc(O)c2)cc1 [RESVERATROL]
IC50 [8]: 250 nM | IC50 [9]: 500 nM

Continued, values first:

IC50 [1]: 2800 nM
SMILES: O=Cc1ccc(N2CCOCC2)cc1O

IC50 [1]: 130 nM
SMILES: Cc1cc(Oc2ccccc2C)c2[nH]c(N3CCOCC3)cc(=O)c2c1

IC50 [1]: 110 nM
SMILES: Cc1cc(NCc2ccccc2C)c2nc(N3CCOCC3)cc(=O)n2c1

IC50 [6]: > 10000 nM
SMILES: CC[C@H](Nc1ncnc2[nH]cnc12)c1nc2cccc(F)c2c(=O)n1-c1ccccc1 [IDELALISIB]
